Assays:
[1] = biological target: T1, recombinant PTP1B (catalytic domain) (Homo sapiens, UniProt P18031); assay: PTP1B inhibitory assay (pNPP hydrolysis); format: biochemical; conditions: in vitro; pNPP substrate, 30 °C, pH 6.5
T1 construct: The enzymatic activities of the PTP1B catalytic domain were determined at 30 °C by monitoring the hydrolysis of pNPP
T1 sequence (P18031 3-277 limits assumed): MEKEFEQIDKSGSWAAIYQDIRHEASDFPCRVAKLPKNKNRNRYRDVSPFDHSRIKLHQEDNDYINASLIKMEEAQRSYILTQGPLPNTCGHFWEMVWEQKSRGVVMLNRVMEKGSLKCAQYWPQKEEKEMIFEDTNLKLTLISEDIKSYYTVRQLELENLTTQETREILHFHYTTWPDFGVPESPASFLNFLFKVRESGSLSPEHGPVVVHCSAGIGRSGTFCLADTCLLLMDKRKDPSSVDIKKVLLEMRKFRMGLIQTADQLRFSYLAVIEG
Experimental: The enzymatic activities of the PTP1B catalytic domain were determined at 30 °C by monitoring the hydrolysis of pNPP. Dephosphorylation of pNPP generates product pNP, which was monitored at an absorbance of 405 nm. In a typical 100 μL assay mixture containing 50 mmol/L 3-[N-morpholino] propanesulfonic acid (MOPs), pH 6.5, 2 mmol/L pNPP, and 30 nmol/L recombinant PTP1B, activities were continuously monitored and the initial rate of the hydrolysis was determined using the early linear region of the enzymatic reaction kinetic curve.

HCT-116 cell line = assay: cytotoxicity against HCT-116 cancer cell line; format: cell-based; conditions: Homo sapiens

Structure (SMILES)	IC50 [1] [µM]	IC50 (HCT-116 cell line) [µM]
CC(C)=CCCC(C)=CCCC(C)=CCCC1=CCC(O)C2(C(=O)O)CC(=O)NC12 (stereo not drawn) [Compound 3]	33	
CC(C)=CCC/C(C)=C/CC/C(C)=C/CCc1ccc(O)c(CC(=O)O)c1 [Compound 4]	14	
CC(C)=CCCC(C)=CCCC(C)=CCCC1=CCC2OC1NC=C2C=O (stereo not drawn) [Compound 1]	5.2	11.6

The next lines start with results.

IC50 [1] [µM]	Structure (SMILES)	IC50 (HCT-116 cell line) [µM]
8.7	CC(C)=CCC/C(C)=C/CC/C(C)=C/CC\C(C=O)=C/C=C/C(C=O)=C/N [Compound 5]	
> 50	CC(C)=CCCC(C)=CCCC(C)=CCCC1=CCC(O)C2(C(N)=O)CC(=O)OC12 (stereo not drawn) [Compound 2]	

From publication PMC4113817, “New Hippolide Derivatives with Protein Tyrosine Phosphatase 1B Inhibitory Activity from the Marine Sponge Hippospongia lachne” (Marine Drugs, 2014)
